Measurements from publication PMC12421899, “Structural and molecular basis for phosphate recognition by SAR11 bacteria” (mBio, 2025).
Like-named read-outs stand apart in the source and are kept apart here.

Experiments:
[1] = molecular target: Synechococcus sp. WH8102 PstS2; conditions: read-out: Kd of PstS2 for phosphate; cited from earlier work
CpPstS = assay: MST-binding assay of CpPstS; parameters: species or system Candidatus Pelagibacter sp. HTCC7211; conditions: 25°C
Method: To analyze the binding affinity of CpPstS to phosphate, the microscale thermophoresis (MST)-binding assay was performed using the Monolith NT.115 instrument (NanoTemper Technologies GmbH). Based on previous studies showing that SAR11_1179 has a high binding affinity to phosphate ([33]), we purified the CpPstS protein under denaturing conditions and refolded it for the MST assay. […]. The high-affinity phosphate-binding affinity of CpPstS is consistent with that previously reported for SAR11_1179 ([33]). To further investigate the molecular mechanism underlying the high-affinity phosphate binding of CpPstS, we subsequently conducted structural biology studies on CpPstS.
Previous studies have shown that PstSCAB specifically transports inorganic phosphate ([10], [41], [42]). […] We therefore speculate that the larger substrate-binding cavity of CpPstS may allow it to bind to both phosphate and larger organic phosphorus compounds. To test this hypothesis, we conducted an MST-binding assay. […] […].
Using primers CppstS-F/CppstS-R, the CppstS gene was PCR amplified from the Candidatus Pelagibacter sp. HTCC7211 strain and inserted into the NdeI/XhoI restriction sites of the pET-22b vector containing a C-terminal His-tag (Table S3). The CpPstS and the selenomethionine (SeMet) derivative of CpPstS were expressed in E. coli BL21(DE3) cells under different culture conditions. For CpPstS protein expression for MST-binding assay, cells were cultured at 37°C in LB medium supplemented with 100 µg/mL ampicillin to an OD600 of 0.8–1.0, and induction was initiated with 0.35 mM isopropyl-β-D-thiogalactopyranoside (IPTG) at 15°C for 16 hours. For SeMet-CpPstS protein expression for crystallization, the SeMet-CpPstS protein was overexpressed in E. coli BL21(DE3) using M9 minimal medium supplemented with selenomethionine, lysine, leucine, valine, isoleucine, threonine, and phenylalanine ([50]). The overexpression was induced with 0.35 mM IPTG at 15°C for 16 hours. The purification of CpPstS for MST-binding assay was under denaturing conditions, cultured E. coli BL21(DE3) cells were collected by centrifugation, resuspended in lysis buffer (40 mM Tris-HCl [pH 8.0], 200 mM NaCl, 5% [vol/vol] glycerol, 2 mM EDTA, and 0.1 mM phenylmethanesulfonyl fluoride), and fractured by pressure crusher (JNBIO, China). The CpPstS protein was first purified by affinity chromatography on a Ni^2+-NTA column (Qiagen, Germany), washed with denaturing Ni binding buffer (8 M urea, 20 mM Tris, 250 mM NaCl, and 20 mM imidazole, pH 8.0) and eluted with denaturing Ni elution buffer (8 M urea, 20 mM Tris, 250 mM NaCl, and 250 mM imidazole, pH 8.0). […]
MST technology was used to quantify the binding affinities of NaH₂PO₄, Mpn, Glycerol-3P, and Glucose-6P to CpPstS. […]

[2] = molecular target: Synechococcus sp. WH8102 PstS1a; conditions: read-out: Kd of PstS1a for phosphate; cited from earlier work
[3] = molecular target: Synechococcus sp. WH8102 PstS1b; conditions: read-out: Kd of PstS1b for phosphate; cited from earlier work
[4] = 40 mM MES pH 7.2, 0.005% Tween-20, read-out: Kd of CpPstS for organic phosphorus compounds

| Molecule | Kd [1] [µM] | Kd (CpPstS; refolded CpPstS, 40 mM MES pH 7.2, 0.005% Tween-20, NaH2PO4 titrated from 1.53 nM to 50 µM, listed as NaH2PO4, read-out: Kd (dissociation constant) of CpPstS for phosphate) [µM] | Kd (CpPstS; refolded CpPstS, 40 mM MES pH 7.2, 0.005% Tween-20, NaH2PO4 titrated from 1.53 nM to 50 µM, read-out: Kd (dissociation constant) of CpPstS for phosphate) [µM] | Kd [2] [µM] | Kd [3] [µM] | Kd (CpPstS; [4]) [µM] |
| --- | --- | --- | --- | --- | --- | --- |
| phosphate | 4.3 | 0.112 ± 0.0805 | 0.112 | 3.3 | 0.44 |  |
| O=C[C@H](O)[C@@H](O)[C@H](O)[C@H](O)COP(=O)(O)O [glucose-6-phosphate] |  |  |  |  |  | 668 ± 253 |
| O=P(O)(O)OCC(O)CO (stereo not shown) [glycerol-3-phosphate] |  |  |  |  |  | 105 ± 44.6 |
